In article PMC7434922, “Key role of quinone in the mechanism of respiratory complex I” (Nature Communications, 2020):

Legend:
[1] = target: T1, T. thermophilus complex I (quinone site, Q-site) (Thermus thermophilus, UniProt Q56218+Q56220+Q60019); experiment: X-ray crystal structure; assay type: binding; details: crystal soaked overnight in 500 uM DQ, pH 6.0; Q-site (Y87_4, H38_4)
T1 construct: gene nqo4; native intact complex purified from T. thermophilus HB8 membranes in TDM; 16 subunits, 550 kDa; for crystals recombinant His-tagged Nqo16 (E. coli) was added; activity preparation has sub-stoichiometric Nqo16; with NADH-quinone oxidoreductase subunit 1; NADH-quinone oxidoreductase subunit 2; NADH-quinone oxidoreductase subunit 3; NADH-quinone oxidoreductase subunit 5; NADH-quinone oxidoreductase subunit 7; NADH-quinone oxidoreductase subunit 9; NADH-quinone oxidoreductase subunit 10; NADH-quinone oxidoreductase subunit 11; NADH-quinone oxidoreductase subunit 12; NADH-quinone oxidoreductase subunit 13; NADH-quinone oxidoreductase subunit 14; NADH-quinone oxidoreductase subunit 15; NADH-quinone oxidoreductase subunit 16

[2] = target: T2, T. thermophilus complex I (NADH/FMN site, subunit Nqo1) (Thermus thermophilus, UniProt Q56222); experiment: X-ray crystal structure; assay type: binding; details: resident cofactor in Nqo1; same crystal
T2 construct: same complex as P1, native from HB8 membranes; crystals with added recombinant His-tagged Nqo16; cryo-EM samples without Nqo16 (15 subunits); with NADH-quinone oxidoreductase subunit 2; NADH-quinone oxidoreductase subunit 3; NADH-quinone oxidoreductase subunit 4; NADH-quinone oxidoreductase subunit 5; NADH-quinone oxidoreductase subunit 6; NADH-quinone oxidoreductase subunit 7; NADH-quinone oxidoreductase subunit 8; NADH-quinone oxidoreductase subunit 9; NADH-quinone oxidoreductase subunit 10; NADH-quinone oxidoreductase subunit 11; NADH-quinone oxidoreductase subunit 12; NADH-quinone oxidoreductase subunit 13; NADH-quinone oxidoreductase subunit 14; NADH-quinone oxidoreductase subunit 15; NADH-quinone oxidoreductase subunit 16
T2 sequence (Q56222 1-438): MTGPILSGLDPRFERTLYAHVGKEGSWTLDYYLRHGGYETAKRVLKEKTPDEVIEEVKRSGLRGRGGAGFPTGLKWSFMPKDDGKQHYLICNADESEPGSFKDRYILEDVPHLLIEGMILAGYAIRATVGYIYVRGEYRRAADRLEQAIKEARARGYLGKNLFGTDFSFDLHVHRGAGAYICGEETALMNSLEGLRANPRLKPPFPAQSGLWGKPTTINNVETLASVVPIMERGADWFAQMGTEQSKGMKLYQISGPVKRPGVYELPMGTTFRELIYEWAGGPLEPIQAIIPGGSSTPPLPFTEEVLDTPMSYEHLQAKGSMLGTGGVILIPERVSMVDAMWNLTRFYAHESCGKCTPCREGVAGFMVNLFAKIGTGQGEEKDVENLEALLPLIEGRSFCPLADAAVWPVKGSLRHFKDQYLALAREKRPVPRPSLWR
T2 sequence (Q56221 2-181 partner): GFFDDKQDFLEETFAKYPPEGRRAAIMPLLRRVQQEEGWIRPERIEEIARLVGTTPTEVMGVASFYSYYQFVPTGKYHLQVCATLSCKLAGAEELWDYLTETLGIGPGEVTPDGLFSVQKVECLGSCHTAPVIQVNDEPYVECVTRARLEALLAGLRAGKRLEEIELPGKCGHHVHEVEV
T2 sequence (Q56223 1-783 partner): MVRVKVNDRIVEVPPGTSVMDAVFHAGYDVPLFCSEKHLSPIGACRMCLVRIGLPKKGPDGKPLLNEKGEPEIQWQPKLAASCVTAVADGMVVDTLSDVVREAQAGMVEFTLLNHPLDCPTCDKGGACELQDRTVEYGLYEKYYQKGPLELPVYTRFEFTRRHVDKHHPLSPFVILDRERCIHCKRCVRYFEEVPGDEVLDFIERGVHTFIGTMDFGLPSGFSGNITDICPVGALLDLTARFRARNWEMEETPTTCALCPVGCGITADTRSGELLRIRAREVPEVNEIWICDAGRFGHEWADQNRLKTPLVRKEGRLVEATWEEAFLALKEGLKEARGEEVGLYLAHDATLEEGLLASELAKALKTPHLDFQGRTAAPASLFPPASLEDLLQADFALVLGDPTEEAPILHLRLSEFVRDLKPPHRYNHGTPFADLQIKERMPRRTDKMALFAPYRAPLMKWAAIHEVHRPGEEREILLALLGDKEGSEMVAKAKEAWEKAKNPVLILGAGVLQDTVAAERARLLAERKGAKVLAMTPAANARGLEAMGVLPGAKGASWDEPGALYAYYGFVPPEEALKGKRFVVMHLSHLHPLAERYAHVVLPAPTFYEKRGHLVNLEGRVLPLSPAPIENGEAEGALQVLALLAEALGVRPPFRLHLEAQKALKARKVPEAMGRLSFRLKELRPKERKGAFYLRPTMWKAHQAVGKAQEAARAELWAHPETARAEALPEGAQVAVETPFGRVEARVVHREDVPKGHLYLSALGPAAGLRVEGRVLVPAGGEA

[3] = target: T2, T. thermophilus complex I (NADH/FMN site, subunit Nqo1); experiment: X-ray crystal structure; also cryo-EM (6ZIY); assay type: binding; details: crystal soaked 4.5 min in 20 mM NADH, 20 mM dithionite, anaerobic, pH 6.0
[4] = target: T3, Complex I antiporter-like subunit Nqo14 (Thermus thermophilus) (T. thermophilus HB8, UniProt Q56229 1-427); experiment: crystal structure; intact complex I purified from T. thermophilus mixed with purified recombinant Nqo16 (1:0.2 CXI:Nqo16), sitting drop at 23 °C, 100 mM Bis-Tris pH 6.0, 19-25% PEG 4000, 100 mM KCl, 100 mM glutaric acid, detergents; native crystals and crystals soaked or co-crystallised with NADH, decylubiquinone, piericidin A, aureothin or pyridaben; details: both partners purified
T3 construct: Nqo14, antiporter-like core subunit of the membrane domain of respiratory complex I, Thermus thermophilus HB8; Endogenous subunit inside the crystallised intact complex; source: purified from T. thermophilus HB8 cells as part of intact complex I (anion exchange, cation exchange, gel filtration)
T3 sequence (looked up): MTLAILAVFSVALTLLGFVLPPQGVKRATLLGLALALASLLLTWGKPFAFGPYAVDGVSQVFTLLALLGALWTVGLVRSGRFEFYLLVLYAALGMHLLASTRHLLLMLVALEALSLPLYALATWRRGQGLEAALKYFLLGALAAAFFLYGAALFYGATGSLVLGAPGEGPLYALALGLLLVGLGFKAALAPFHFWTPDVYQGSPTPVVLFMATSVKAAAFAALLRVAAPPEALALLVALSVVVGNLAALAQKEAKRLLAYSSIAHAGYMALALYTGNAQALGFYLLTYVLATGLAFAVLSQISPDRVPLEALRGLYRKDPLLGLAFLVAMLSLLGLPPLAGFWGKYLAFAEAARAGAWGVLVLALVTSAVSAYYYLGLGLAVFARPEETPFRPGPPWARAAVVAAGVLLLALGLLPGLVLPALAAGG

[5] = target: T4, Complex I subunit Nqo10 (Thermus thermophilus) (T. thermophilus HB8, UniProt Q56225 1-176); experiment: as above; details: both partners purified
T4 construct: Nqo10, core subunit of the membrane domain of respiratory complex I, Thermus thermophilus HB8; Endogenous subunit inside the crystallised intact complex; source: purified from T. thermophilus HB8 cells as part of intact complex I (anion exchange, cation exchange, gel filtration)
T4 sequence (looked up): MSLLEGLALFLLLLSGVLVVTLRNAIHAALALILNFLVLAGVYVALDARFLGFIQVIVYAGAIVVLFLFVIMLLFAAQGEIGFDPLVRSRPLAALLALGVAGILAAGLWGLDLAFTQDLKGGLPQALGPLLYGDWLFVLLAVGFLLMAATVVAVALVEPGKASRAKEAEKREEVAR

CCCCCCCCCCC1=C(C)C(=O)C(OC)=C(OC)C1=O [DQ, decylubiquinone]
X-ray crystal structure [1]: DQ interacts mainly with the residues mentioned above with its hydrocarbon chain surrounded by

Cc1cc2nc3c(=O)[nH]c(=O)nc-3n(C[C@H](O)[C@H](O)[C@H](O)COP(=O)(O)O)c2cc1C [FMN, flavin-mononucleotide]
X-ray crystal structure [2]: The FMN is coordinated by subunit Nqo1 at the deep end

NC(=O)C1=CN([C@@H]2O[C@H](COP(=O)(O)OP(=O)(O)OC[C@H]3O[C@@H](n4cnc5c(N)ncnc54)[C@H](O)[C@@H]3O)[C@@H](O)[C@H]2O)C=CC1 [NADH]
X-ray crystal structure; also cryo-EM (6ZIY) [3]: Our crystal structure of intact complex I with bound NADH confirms the binding mode

B1: Complex I subunit Nqo11 (Thermus thermophilus) (natural protein, T. thermophilus HB8, UniProt Q56226 1-95, looked up)
chain: MSYLLTSALLFALGVYGVLTRRTAILVFLSIELMLNAANLSLVGFARAYGLDGQVAALMVIAVAAAEVAVGLGLIVAIFRHRESTAVDDLSELRG
notes: Nqo11, core subunit of the membrane domain of respiratory complex I, Thermus thermophilus HB8; Endogenous subunit inside the crystallised intact complex; source: purified from T. thermophilus HB8 cells as part of intact complex I (anion exchange, cation exchange, gel filtration)
binding result [4]: binds | binding result [5]: binds
